Experimental data taken from patent publication US5468633A, “Human endothelin converting enzyme obtained from blood or placenta” (Nisshin Flour Milling Co., Ltd., priority 1993, dated 1995).

Test system: endothelin converting enzyme
Assay: Effects of various inhibitors on the activity of converting big endothelin-1 to endothelin-1 (residual enzymatic activity)
Type: biochemical, human
Details: 37° C., 30 minutes preincubation, pH 7.0, untreated enzyme = 100
Description: 15 μl of a 20 nmol/ml big endothelin-1 solution was added to 0.3 ml of an enzyme solution (10 mM tris-hydrochloric acid-0.15M sodium chloride buffer; pH 7.0), and the mixture was reacted at 37° C. for 6 hours. After completion of the reaction, 6 μl of a 0.1M EDTA solution was added to terminate the reaction.
Subsequently, the resultant endothelin-1 was assayed according to a sandwich enzyme immunoassay (EIA) method. An enzymatic activity of converting 1 pmol of big endothelin-1 to endothelin-1 per hour under the above-described reaction conditions is termed 1 U (unit).
A sample and an endothelin standard solution of a predetermined concentration were respectively applied to a 96-hole microplate on which anti-endothelin monoclonal antibody had been immobilized to thereby cause the reaction. After washing the microplate, peroxidase-labeled anti-endothelin polyclonal antibody was added to thereby cause the reaction. After washing the microplate, activity of bound peroxidase was assayed. Endothelin-1 in the sample was assayed based on the calibration curve drawn by using endothelin standard solutions having a predetermined concentration of endothelin.
The enzyme of the invention was tested for the effects of various inhibitors against the activity of converting big endothelin-1 to endothelin-1.
The enzyme was incubated in 0.3 ml of a reaction solution (10 mM tris-hydrochloric acid-0.15M sodium chloride buffer; pH 7.0) containing various inhibitors at 37° C. for 30 minutes, and the residual enzymatic activity was measured in the above-described manner. Residual activities in the presence of various inhibitors are shown in Table 1 as relative activity taking the activity of untreated enzyme as 100.

Relative Activity (%) (inhibitor 0.1 mM) | Compound | also measured
– | CC(C)C[C@H](NC(=O)[C@@H](NC(=O)N[C@@H](Cc1ccccc1)C(=O)O)[C@@H]1CCN=C(N)N1)C(=O)N[C@H](C=O)Cc1ccccc1 [Chymostatin] | Relative Activity (%) (inhibitor 0.01 mM): 20%
– | O=S(=O)(F)Cc1ccccc1 [Phenylmethanesulfonyl fluoride] | Relative Activity (%) (inhibitor 1 mM): 7%
0% | CC(C)C[C@H](NP(=O)(O)O[C@@H]1O[C@@H](C)[C@H](O)[C@@H](O)[C@H]1O)C(=O)N[C@@H](Cc1c[nH]c2ccccc12)C(=O)O [Phosphoramidon] | –
0% | O=C(O)CNC(=O)C(CS)Cc1ccccc1 (stereo not shown) [Thiorphan] | –
